“Also recorded” adds a separate entry of the source.
Experiments:
[1] = tested on: human MPNST cells subcutaneously xenografted into mice; settings: cited from earlier work
[2] = tested on: mouse embryonic fibroblasts; settings: cited from earlier work
[3] = mice; dosed orally (b5); listed as compound 21; cited from earlier work
IMPDH = test: Guanosine co-titration rescue; assay type: cell-based; settings: guanosine co-titrated
Description: (§1) Given that vacor, 3-AP, and compound 21 are all metabolized to toxic, NAD-like derivatives through NAMPT and NMNAT, we hypothesized that their anti-cancer activity may also depend on SARM1. To test this, we compared the toxic effects of vacor, 3-AP, and 9 in either wild type cells or cells in which we used CRISPR to silence SARM1. […] These observations highlight that even though these different scaffolds are toxified through the same mechanism, the resulting metabolites may have different activities. We next co-titrated guanosine, which is known to rescue tiazofurin by bypassing IMPDH in guanylate synthesis, with each of the above small molecules. […] To test this hypothesis, we set up in vitro reactions with different combinations of 9, NAMPT and NMNAT. After incubation, metabolites were extracted, reconstituted in aqueous solution and then co-incubated with an established IMPDH2 enzyme assay.

[4] = Levels of 9 in media and cells over time; assay type: cell-based
Description: Given that compound 21 (1) and 9 both resemble and are rescued by Nam, and the fact that the NAD salvage pathway is essential for toxicity, we considered that these two compounds may themselves be substrates in the NAD salvage pathway. In this model, we would predict that the compounds would be metabolized in cells, and that excess Nam acting as a competitive substrate would block that metabolism. To test this hypothesis, we measured the total amount of 9 in media and cells over time with or without Nam supplementation.
Prior to the experiment, cells were cultured in low-Nam DMEM for at least 1 passage (3 days) to deplete intracellular Nam. 15,000 cells were plated in a 96-well plate with 100 μL low-Nam media. At appropriate time points, 500 nM 1 or 9, or equal volume of vehicle (DMSO) were added using TECAN. 200 μL of acetonitrile with 0.1% formic acid were added to the assayed wells. […] The supernatants were filtered through 0.2 μm PVDF filters and analyzed by LC-MS/TOF.
Initial evaluation of the stability of 9 in the presence and absence of exogenous Nam was performed using LC-MS/MS analysis with a Sciex TripleQuad™ 4500 (AB SCIEX, Framingham, MA, USA) coupled to a Shimadzu (Columbia, MD) Prominence LC. The compound was detected in positive MRM mode following the transition 204.9 to 79.0. […]

SARM1 = test: Cytotoxicity in SARM1-knockout versus wild type cells; assay type: cell-based; settings: SARM1-knockout vs wild type
Description: as §1

[5] = tested on: Cas9-expressing HCT116 cells; test: Genome-wide pooled CRISPR/Cas9 knockout screen in HCT116; assay type: cell-based, human
Description: (§2) To gain insight into the mechanism of 9 and the relevance of Nam, we pursued two independent and complementary unbiased genetic approaches. First, we performed a genome-wide pooled Clustered Regularly Interspaced Short Palindromic Repeats (CRISPR) and CRISPR-associated protein 9 (Cas9) knockout screen to identify genes whose loss of function can enhance or suppress compound 9 activity. […] We cultured Cas9-expressing HCT116 cells in 10% FBS Nam-free DMEM and transduced with a lentiviral single guide RNA (sgRNA) library designed to silence 19,114 human genes.^11 These cells were treated with either vehicle (DMSO) or 9 for 30 days by which time the 9-treated cells had 7.6 fewer population doublings. Then, relative sgRNA sequences in the resulting cells were determined by massively parallel sequencing of PCR products amplified from genomic DNA, and the relative impact of each gene was derived from the sgRNA reads.
(§3) These observations, taken together, support the hypothesis that the activity of compound 9 depends on NAMPT and NMNAT1.

HCT116 cells = test: Cas9-expressing HCT116 cell viability; assay type: cell-based
Description: as §2, §3
In 96-well assay plates (Corning #2903), 2,000 cells were plated per well in 100 μL of medium and allowed to adhere overnight. The next day, compounds or Nam suspended in DMSO were dispensed to the assayed wells using a D300e Digital Dispenser (Tecan). All wells were normalized to 0.5% DMSO. 72 hours after incubation at 37 °C in 5% CO2, cell viability was assayed using an ATP-based luminescent viability assay, CellTiter-Glo (Promega #G8462). CellTiter-Glo substrate was mixed 1:1 with phosphate-buffered saline (PBS) supplemented with 1% Triton X-100, and 40 μL of this mixture was added to the assay wells. After the plates were shaken on a microplate shaker for 10 minutes at room temperature, luminescence was recorded using a Synergy 2 Microplate Reader or Cytation 5 plate reader (BioTek). In Prism 9 software (GraphPad), ten-point dose response curves were plotted with baseline-correction to the vehicle control well, and IC50 values were calculated by curve fitting using asymmetric (five parameter), least squares fit.

[6] = tested on: NAMPT activity in S462 cells; test: NMN levels in S462 cells (NAMPT activity in cells); assay type: cell-based, human; settings: regular DMEM, increasing concentrations of 9, compared with FK866

| decrease in levels of 9 with Nam ([4]; 100 μM Nam, 24 hours) | half-life at 0.5 µM ([4]; cells in nam-free dmem, 10% FBS Nam-free DMEM) [h] | IC50 (HCT116 cells; Cas9-expressing HCT116, 10% FBS Nam-free DMEM) [nM] | average increase in IC50 on NMNAT1 knockout (HCT116 cells; HCT116, three independent NMNAT1 sgRNAs) [fold] | SMILES | toxic effects in mice ([1]; mice bearing MPNST xenografts) | growth of xenograft tumors ([1]; mice, listed as compound 21) | toxicity to mouse embryonic fibroblasts [2] | bioavailability [3] | guanosine rescue of toxicity (IMPDH) | sensitivity of SARM1-knockout cells (SARM1) | enrichment of sgRNA reads for NAMPT ([5]; 9-treated cells, 30 days) [fold] | increase in sgRNA reads targeting NMNAT1 ([5]; 9-treated cells, 30 days) [fold] | fewer population doublings ([5]; 9-treated versus vehicle, 30 days) [population doublings] | rank of NAMPT among enriched genes ([5]; out of 19,114 genes) | rescue by 100 μM Nam (HCT116 cells; 10% FBS Nam-free DMEM) | NMN levels in S462 cells [6] |
| --- | --- | --- | --- | --- | --- | --- | --- | --- | --- | --- | --- | --- | --- | --- | --- | --- |
|  |  |  |  | O=C(Nc1cccnc1)c1cccs1 [Compound 1, N-(pyridin-3-yl)thiophene-2-carboxamide] | without obvious toxic effects | inhibited the growth; also recorded: reduces the growth of xenograft tumors | nontoxic | bioavailable when dosed orally; also recorded: bioavailable in mice |  |  |  |  |  |  |  |  |
| no appreciable decrease | ~3.8 | 20.8 | 6.0 | O=C(Nc1cccs1)c1cccnc1 [Compound 9, N-(Thiophen-2-yl)nicotinamide] |  |  |  |  | profound dose-dependent rescue | equally sensitive | 2.1 | 5.2 | 7.6 | 101 | rescued by 100 μM Nam | did not reduce the levels of NMN to the same extent as FK866 |

Reference: US20260356803A1, “Nicotinamide derivatives” (Board of Regents, The University of Texas System, priority 2024, published 2026)
